# Measurements published in patent US5506244A, “Cyclic amino acid derivatives” (Ciba-Geigy Corporation, priority 1994, dated 1996).
# Where two headings read alike, the source gives them in different places.
# How the values were obtained:
# [1] = molecular target: T1, neutral endopeptidase (NEP, EC 3.4.24.11) (Rattus norvegicus, UniProt P07861); assay: in vitro inhibition of neutral endopeptidase (GAAP assay); format: biochemical; conditions: GAAP 500 μM, rat kidney cortex membranes, pH 7.4, 25° C., 10 minutes
# T1 construct: rat kidney cortex membranes prepared by method of Maeda; from tissue; host or cells: rat kidney cortex membranes
# T1 sequence (P07861 1-750): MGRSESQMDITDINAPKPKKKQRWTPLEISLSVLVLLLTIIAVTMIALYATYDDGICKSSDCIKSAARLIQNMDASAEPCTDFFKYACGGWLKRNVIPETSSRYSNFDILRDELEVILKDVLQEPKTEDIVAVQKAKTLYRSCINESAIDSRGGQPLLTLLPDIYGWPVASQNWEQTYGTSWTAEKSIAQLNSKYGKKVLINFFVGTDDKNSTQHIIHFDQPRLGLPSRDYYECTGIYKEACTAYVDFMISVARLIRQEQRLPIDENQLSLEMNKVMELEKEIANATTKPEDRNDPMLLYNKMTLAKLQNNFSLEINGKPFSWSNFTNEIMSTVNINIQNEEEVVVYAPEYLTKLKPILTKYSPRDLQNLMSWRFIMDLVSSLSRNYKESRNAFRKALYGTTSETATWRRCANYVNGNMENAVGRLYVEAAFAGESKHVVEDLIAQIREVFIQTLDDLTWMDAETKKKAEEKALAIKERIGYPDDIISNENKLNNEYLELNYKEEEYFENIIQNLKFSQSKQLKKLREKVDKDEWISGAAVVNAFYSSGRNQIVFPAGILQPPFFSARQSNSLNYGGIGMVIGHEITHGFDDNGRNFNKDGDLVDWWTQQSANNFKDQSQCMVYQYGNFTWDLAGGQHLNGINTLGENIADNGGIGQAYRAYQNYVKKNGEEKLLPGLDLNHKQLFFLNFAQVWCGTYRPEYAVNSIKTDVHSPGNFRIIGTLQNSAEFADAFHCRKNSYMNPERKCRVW
# Procedure: (§1) In vitro testing is most appropriate for the free carboxylic acids of the invention. The test compound is dissolved in dimethyl sulfoxide, ethanol, or 0.25 M sodium bicarbonate solution, and the solution is diluted with buffer to the desired concentration.
# The in vitro inhibition of neutral endopeptidase (NEP, EC 3.4.24.11 ) can be determined as follows:
# Neutral endopeptidase 3.4.24.11 activity is determined by the hydrolysis of the substrate glutaryl-Ala-Ala-Phe-2-naphthylamide (GAAP) using a modified procedure of Orlowski and Wilk (1981). The incubation mixture (total volume 125 μl) contains 4.2 μg of protein (rat kidney cortex membranes prepared by method of Maeda et at, 1983), 50 mM iris buffer, pH 7.4 at 25° C., 500 μM substrate (final concentration), and leucine aminopeptidase M (2.5 μg). The mixture is incubated for 10 minutes at 25° C. and 100 μl of fast garnet (250 μg fast garnet/ml of 10% Tween 20 in 1 M sodium acetate, pH 4.2) is added. Enzyme activity is measured spectrophotometrically at 540 nm. One unit of NEP 24.11 activity is defined as 1 nmol of 2-naphthylamine released per minute at 25° C at pH 7.4. IC50 values are determined, i.e. the concentration of test compound required for 50% inhibition of the release of 2-naphthylamine.
# [2] = molecular target: T2, angiotensin-converting enzyme (ACE) (Oryctolagus cuniculus, UniProt P12822); assay: in vitro inhibition of angiotensin-converting enzyme (ACE); format: biochemical
# T2 sequence (P12822 34-1310): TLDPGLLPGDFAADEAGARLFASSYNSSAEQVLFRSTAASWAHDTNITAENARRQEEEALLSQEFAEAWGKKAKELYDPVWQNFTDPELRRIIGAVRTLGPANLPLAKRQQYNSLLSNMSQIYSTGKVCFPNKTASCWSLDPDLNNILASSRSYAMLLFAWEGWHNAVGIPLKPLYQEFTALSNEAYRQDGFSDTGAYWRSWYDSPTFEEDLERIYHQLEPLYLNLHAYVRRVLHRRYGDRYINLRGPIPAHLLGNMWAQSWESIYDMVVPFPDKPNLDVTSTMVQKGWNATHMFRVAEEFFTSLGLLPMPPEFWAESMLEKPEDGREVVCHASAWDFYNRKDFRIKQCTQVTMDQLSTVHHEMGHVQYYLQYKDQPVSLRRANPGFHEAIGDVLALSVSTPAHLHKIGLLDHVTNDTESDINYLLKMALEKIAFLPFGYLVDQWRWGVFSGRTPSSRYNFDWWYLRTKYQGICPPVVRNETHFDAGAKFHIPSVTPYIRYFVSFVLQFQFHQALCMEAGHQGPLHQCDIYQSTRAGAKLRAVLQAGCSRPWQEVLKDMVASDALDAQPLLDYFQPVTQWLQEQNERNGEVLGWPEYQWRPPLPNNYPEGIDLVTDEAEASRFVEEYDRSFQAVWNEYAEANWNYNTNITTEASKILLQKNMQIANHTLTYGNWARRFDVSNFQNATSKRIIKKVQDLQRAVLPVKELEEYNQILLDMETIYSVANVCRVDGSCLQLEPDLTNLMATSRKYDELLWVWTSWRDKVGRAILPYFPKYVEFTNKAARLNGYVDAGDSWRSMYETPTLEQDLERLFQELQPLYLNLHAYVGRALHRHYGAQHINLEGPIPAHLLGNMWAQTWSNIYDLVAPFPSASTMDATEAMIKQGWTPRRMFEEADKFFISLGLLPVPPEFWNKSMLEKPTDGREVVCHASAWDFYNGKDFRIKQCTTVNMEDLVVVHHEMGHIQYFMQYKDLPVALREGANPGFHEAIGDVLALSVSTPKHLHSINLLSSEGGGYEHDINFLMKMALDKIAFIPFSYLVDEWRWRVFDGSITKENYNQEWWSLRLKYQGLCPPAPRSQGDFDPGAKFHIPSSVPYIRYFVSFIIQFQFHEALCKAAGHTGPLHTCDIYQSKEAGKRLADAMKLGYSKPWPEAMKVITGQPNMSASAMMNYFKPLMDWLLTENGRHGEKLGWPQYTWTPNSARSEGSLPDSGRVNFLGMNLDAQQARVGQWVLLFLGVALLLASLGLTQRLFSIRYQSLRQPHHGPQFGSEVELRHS
# Procedure: as §1
# The buffer for the ACE assay is 300 mM NaCl, 100 mM KH2 PO4 (pH 8.3). The reaction is initiated by the addition of 100 μl of hippuryl-histidyl-leucine (2 mg/ml) to tubes containing enzyme and drug in a volume of 150 μl and tubes are incubated for 30 minutes at 37° C. The reaction is terminated by the addition of 0.75 ml 0.6 N NaOH. 100 μl of freshly prepared 0-pthaldehyde solution (2 mg/ml in methanol) is added to the tubes, the contents are mixed and allowed to stand at room temperature. After 10 minutes, 100 μl of 6 N HCl is added. The tubes are centrifuged and the supernatant optical density is read at 360 nm.
# [3] = tested on: Angiotensin I induced pressor response; assay: inhibition of the angiotensin I induced pressor response in normotensive rats; format: in vivo, rat; conditions: 10 mg/Kg p.o., angiotensin I 300 ng/kg i.v.
# Procedure: The in vivo test for intravenously administered compounds is performed with male, normotensive rats, which are anesthetized with sodium metofan. A femoral artery and femoral vein are cannulated respectively for direct blood pressure measurement on i.v. administration of angiotensin I and i.v. or p.o. administration of a compound of this invention. After the basal blood pressure is stabilized, pressor responses to 3 challenges of 300 ng/kg angiotensin I i.v., at 15 minute intervals, are obtained. Such pressure responses are usually again obtained at 15, 30, 60 and 90 minutes, and then every hour up to 6 hours after i.v. or p.o. administration of the compound to be tested, and compared with the initial responses. Any observed decrease of said pressor response is an indication of Angiotensin I converting enzyme inhibition.
Compound,IC50 [1] [nM],"IC50 ([2]; hippuryl-histidyl-leucine substrate, pH 8.3, 37° C., 30 minutes, read-out: IC50 in the ACE in vitro assay) [nM]",IC50 [2] [nM],duration of inhibition of the Angiotensin I induced pressor response [3]
CC(C)[C@H](S)C(=O)NC1(C(=O)N[C@@H](Cc2ccc(O)cc2)C(=O)O)CCCC1 [Example 2a],~2,~7,,
COc1ccc(C[C@H](NC(=O)C2(NC(=O)[C@@H](S)C(C)C)CCCC2)C(=O)O)cc1 [Example 2i],~2.2,,~19,
"CCOC(=O)[C@H](Cc1ccc(O)cc1)NC(=O)C1(NC(=O)[C@@H](SC(C)=O)C(C)C)CCCC1 [1 (b), N-[[1-[(2(S)-acetylmercapto-3-methyl-1-oxobutyl)amino]-1-cyclopentyl]carbonyl]-L-tyrosine ethyl ester]",,,,six
